Experimental data from patent US20110312941A1, “1,4-DISUBSTITUTED PIPERIDINES AS VASOPRESSIN RECEPTOR VIA ANTAGONISTS” (VANTIA LIMITED, priority 2009, published 2011).

Target: T1, cloned human V1a receptor (Homo sapiens, UniProt P37288)
T1 construct: host or cells: human brain astrocytoma 1321N1 cells
Test: in vitro functional calcium mobilisation assay (FLIPR), antagonist activity, 1321N1 cells, 250 pM AVP
Format: cell-based
Conditions: functional pKi derived from pIC50 (Equation 1), FLIPR Ca2+ mobilisation, 1321N1 cells expressing cloned human V1a receptor, read-out: Mean fpKi (Human V1a) (converted)
Procedure: The primary assay which may be used to determine the ability of the compounds of formula (1) to inhibit the vasopressin V1a receptor is an in vitro functional calcium mobilisation assay (FLIPR) that measures antagonist activity at a cloned human V1a receptor. The assay is described below.
The antagonist activity of compounds of formula (1) were determined in a Calcium (Ca2+) mobilisation assay using whole cells (human brain astrocytoma 1321N1 cells, ex Perkin Elmer) genetically modified to stably express a cloned human V1a receptor. Dose response curves were determined by displacement of a single concentration of agonist (250 pM AVP, ex Sigma) with increasing concentrations of compound. A pIC50 value is determined by non-linear regression to a 4-parameter logistic equation and a functional pKi (fpKi) derived using Equation 1.
where A=agonist single conc, and A50=the agonist EC50.

T1 sequence (P37288 whole entry): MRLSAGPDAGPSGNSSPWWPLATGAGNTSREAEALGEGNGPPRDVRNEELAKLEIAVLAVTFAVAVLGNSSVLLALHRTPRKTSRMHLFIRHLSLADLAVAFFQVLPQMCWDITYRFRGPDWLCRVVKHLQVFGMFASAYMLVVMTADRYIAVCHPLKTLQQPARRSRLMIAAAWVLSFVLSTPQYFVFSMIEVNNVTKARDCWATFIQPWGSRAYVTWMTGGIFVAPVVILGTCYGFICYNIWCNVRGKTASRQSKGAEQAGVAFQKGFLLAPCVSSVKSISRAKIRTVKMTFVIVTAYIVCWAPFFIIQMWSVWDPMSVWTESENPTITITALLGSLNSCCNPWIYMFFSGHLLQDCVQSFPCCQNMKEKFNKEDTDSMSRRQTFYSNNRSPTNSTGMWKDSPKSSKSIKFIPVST

Row | Structure (SMILES) | Ki [nM]
1 | Cc1ccnc(N2CCC(C(=O)N3CCc4nc(N5CCOCC5)[nH]c4-c4cc(C)ccc43)CC2)c1 [Example 32] | 1.58
2 | CCc1nc2c([nH]1)-c1cc(C)ccc1N(C(=O)C1CCN(c3cc(C)ccn3)CC1)CC2 [Example 18] | 2.29
3 | O=C(C1CCN(c2ccccn2)CC1)N1Cc2cccn2Cc2cc(F)ccc21 [Example 150] | 1.91
4 | COc1cccnc1N1CCC(C(=O)N2Cc3cnn(C)c3Nc3cc(C)ccc32)CC1 [Example 113] | 30.2
5 | O=C(C1CCN(c2ccc(Cl)cc2)CC1)N1Cc2cccn2Cc2ccccc21 [Example 158] | 4.79
6 | Cc1nc2c([nH]1)-c1cc(Cl)ccc1N(C(=O)C1CCN(c3ccc(Cl)cc3)CC1)CC2 [Example 88] | 6.17
7 | O=C(C1CCN(c2ccccc2)CC1)N1CCc2nc(-c3ccccc3F)[nH]c2-c2cc(Cl)ccc21 [Example 80] | 81.3
8 | Cc1nc2c([nH]1)-c1cc(Cl)ccc1N(C(=O)C1CCN(c3ccccn3)CC1)CC2 [Example 44] | 12.6
9 | Cc1ccc2c(c1)Nc1c(cnn1C)CN2C(=O)C1CCN(c2ncccn2)CC1 [Example 102] | 151
10 | Cc1ccc(N2CCC(C(=O)N3CCc4nc(N5CCOCC5)[nH]c4-c4ccccc43)CC2)nc1 [Example 12] | 2.14
11 | Cc1ccc(N2CCC(C(=O)N3Cc4cnn(C)c4Nc4cc(Cl)ccc43)CC2)nc1 [Example 118] | 1.74
12 | Cc1ccc(N2CCC(C(=O)N3CCc4[nH]c(CC(C)C)nc4-c4cc(C)ccc43)CC2)nc1 [Example 29] | 2.69
13 | COc1ccnc(N2CCC(C(=O)N3CCc4nc(N5CCOCC5)[nH]c4-c4cc(C)ccc43)CC2)c1 [Example 33] | 0.977
14 | COc1ccccc1N1CCC(C(=O)N2CCc3nc(C)[nH]c3-c3cc(Cl)ccc32)CC1 [Example 92] | 22.9
15 | Cc1ccc(N2CCC(C(=O)N3CCc4nc(N5CCN(C)CC5)[nH]c4-c4cc(C)ccc43)CC2)nc1 [Example 30] | 1.78
16 | O=C(C1CCN(c2ccccn2)CC1)N1CCc2nc(N3CCOCC3)[nH]c2-c2cc(F)ccc21 [Example 13] | 7.94
17 | Cc1ccc(N2CCC(C(=O)N3CCc4nc(C5CCOCC5)[nH]c4-c4cc(C)ccc43)CC2)nc1 [Example 39] | 2
18 | Cc1ccc(N2CCC(C(=O)N3Cc4cccn4Cc4ccccc43)CC2)cc1 [Example 161] | 1.12

Further lines, results first:

Row | Ki [nM] | Structure (SMILES)
19 | 0.977 | COc1cccnc1N1CCC(C(=O)N2CCc3nc(N4CCOCC4)[nH]c3-c3cc(C)ccc32)CC1 [Example 3, (3′-Methoxy-3,4,5,6-tetrahydro-2H-[1,2′]bipyridinyl-4-yl)-(9-methyl-2-morpholin-4-yl-4,5-dihydro-1H-1,3,6-triaza-benzo[e]azulen-6-yl)-methanone]
20 | 28.8 | NCc1ccccc1N1CCC(C(=O)N2Cc3cccn3Cc3ccccc32)CC1 [Example 177, [1-(2-Aminomethyl-phenyl)-piperidin-4-yl]-(5H,11H-benzo[e]pyrrolo[1,2-a][1,4]diazepin-10-yl)-methanone]
21 | 5.01 | CCc1nc2c([nH]1)-c1cc(C)ccc1N(C(=O)C1CCN(c3ncccc3C)CC1)CC2 [Example 17]
22 | 17 | O=C(C1CCN(c2cccc([N+](=O)[O-])c2)CC1)N1Cc2cccn2Cc2ccccc21 [Example 173]
23 | 42.7 | O=C(C1CCN(c2ccccc2)CC1)N1CCc2nc(Cc3ccccc3)[nH]c2-c2cc(Cl)ccc21 [Example 82]
24 | 25.7 | Cc1nc2c([nH]1)-c1cc(Cl)ccc1N(C(=O)C1CCN(c3ccccc3C)CC1)CC2 [Example 89]
25 | 31.6 | O=C(C1CCN(c2cccnc2)CC1)N1Cc2cccn2Cc2ccccc21 [Example 146]
26 | 8.71 | CN1CCN(c2nc3c([nH]2)-c2cc(Cl)ccc2N(C(=O)C2CCN(c4ccccc4)CC2)CC3)CC1 [Example 78]
27 | 3.98 | Nc1ccccc1N1CCC(C(=O)N2Cc3cccn3Cc3ccccc32)CC1 [Example 175, [1-(2-Amino-phenyl)-piperidin-4-yl]-(5H,11H-benzo[e]pyrrolo[1,2-a][1,4]diazepin-10-yl)-methanone]
28 | 4.37 | Cc1ccc2c(c1)-c1[nH]c(C3CCOCC3)nc1CCN2C(=O)C1CCN(c2ncccc2C)CC1 [Example 37]
